Data as given in US4707487A, “(4-imidazolyl)piperidines, the preparation thereof and their application in therapy” (Institut National de la Sante et de la Recherche Medicale …, priority 1985, dated 1987).
Blank lines part the entries; values can stand above or below the compound they belong to.

Assays:
[1] = tested on: rate of renewal of histamine in the synaptosomal fraction (P2) of rat cerebral cortex; assay: Effects of H3 antagonists on the rate of renewal of cerebral histamine (depletion after synthesis blocking with α-FMH); format: in vivo, rat (male); design: Depletion by α-FMH: unit not given beside the values
[2] = Acute toxicity: mortality in mice after a single administration of increasing doses; details: mouse, in vivo, after one hour
Procedure: The determination of mortality in mice is observed folowing a single intravenous administration of increasing doses of compounds to be tested.
The L.D.50 for all the compounds studied is […] 100 mg/kg […]. For example, that for the derivative No. 1 is 100 mg/kg after one hour.

[3] = molecular target: T1, H3 self-receptors of rat brain (Rattus norvegicus, UniProt Q9QYN8); assay: cell-based
T1 sequence (Q9QYN8 whole entry): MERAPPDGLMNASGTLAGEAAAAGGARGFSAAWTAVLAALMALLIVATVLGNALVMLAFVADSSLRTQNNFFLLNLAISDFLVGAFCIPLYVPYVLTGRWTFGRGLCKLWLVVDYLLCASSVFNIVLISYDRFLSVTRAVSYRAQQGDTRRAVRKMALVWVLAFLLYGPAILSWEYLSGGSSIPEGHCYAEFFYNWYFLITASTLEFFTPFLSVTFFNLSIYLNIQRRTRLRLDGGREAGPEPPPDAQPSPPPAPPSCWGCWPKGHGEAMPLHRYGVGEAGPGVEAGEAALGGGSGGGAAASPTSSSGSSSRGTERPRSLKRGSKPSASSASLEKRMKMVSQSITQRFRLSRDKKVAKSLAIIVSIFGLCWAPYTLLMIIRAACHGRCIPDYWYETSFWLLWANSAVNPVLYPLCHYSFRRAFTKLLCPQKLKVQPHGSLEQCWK
From the text: (§1) The method described by Arrang et al., (Nature 1983, 302: 838-837) is used on sections (0.3 mm thick) of cerebral cortex of male Wistar rats (180-200 g) (IFFA-CREDO, France).

[4] = tested on: rate of renewal of histamine in the synaptosomal fraction (P2) of rat cerebral cortex; assay: Effects of H3 antagonists on the rate of renewal of cerebral histamine (depletion after synthesis blocking with α-FMH); format: in vivo, rat (male); design: Depletion by α-FMH: unit not given beside the values; remark: listed apart in the source
Procedure: III. EFFECTS OF H3 A[…] THE RATE OF RENEWAL OF CEREBRAL HISTAMINE
Male rats weighing from 80 to 100 g simultaneously receive intraperitoneally α-fluoromethyl histidine and the compound to be tested, each at a dose of 20 mg/kg. One hour later, the animals are sacrificed and the cerebral cortex rapidly removed and homogenized in 10 volumes of 0.32 M sucrose. The homogenate thereby obtained is subjected to two successive centrifugations, the first at 10^4 g.min and second at 2×10^5 g.min to sediment the fraction enriched in synaptosomes (Whittaker, Michaelson and Kirkland, Biochem. J., 1967, 90, 293-305). After resuspension of this fraction in 10 volumes of 20 mM phosphate (K2 /K) buffer, PH 7.8, and treatment with ultrasound, an aliquot portion is frozen for subsequent assay of histidine decarboxylase activity (Baudry, Martres and Schwartz, J. Neurochem., 21, 1301-1309, 1973), and another portion is heated for 10 minutes at 95° C. and then centrifuged at 10^4 g.min. The endogenous histamine is determined in the supernatant by a radioenzymatic assay, which enables the histamine to be converted to tritiated N^w methylhistamine by means of an enzyme purified from rat kidney, histamine N-methyltransferase, and a tritiated methyl radical donor, S-adenosylmethionine. The N^w -methylhistamine thereby formed is selectively extracted in an alkaline medium into chloroform, before measurement of the tritiated product by liquid scintillation (Taylor and Snyder, J. Pharmacol. Exp. Ther., 137, 619-633, 1971).
In the controls, these rates correspond to 15 ng/g/h, compared with approximately 30 ng/g/h after treatment with an H3 -receptor antagonist (Table 3).

[5] = molecular target: T1, H3 self-receptors of rat brain; assay: Antagonism of histamine stimulation of the H3 receptors controlling the release of (3H)histamine induced by depolarization of sections of rat brain
From the text: as §1

[6] = α-FMH 20 mg/kg + test compound 2 mg/kg
[7] = α-FMH 20 mg/kg + test compound 20 mg/kg
[8] = α-FMH 20 mg/kg + test compound 20 mg/kg, * p < 0.01 with respect to α-FMH alone
[9] = α-FMH 20 mg/kg + test compound 20 mg/kg, where marked *** p < 0.05 with respect to α-FMH
[10] = α-FMH alone 20 mg/kg, i.p., 1 h, rat cerebral cortex
[11] = read-out: Apparent dissociation constant (Ki) as antagonist of histamine on the H3 self-receptors of rat brain

SMILES: S=C(NC1CCCCC1)N1CCC(c2c[nH]cn2)CC1 [Example 1]
histamine level in the synaptosomal fraction ([1]; administered alone at a dose of 20 mg/kg): significant fall in the histamine level in the synaptosomal fraction | Depletion by α-FMH ([1]; test compound alone 20 mg/kg, no α-FMH): 12.3 ± 3.7 | Histamine (level in the synaptosomal fraction P2) ([1]; test compound alone 20 mg/kg, no α-FMH, ** p < 0.03 with the untreated animals): 39.3 ± 2.1 | Depletion by α-FMH [1, 6]: 28.4 ± 4.0 | Depletion by α-FMH, change (in brackets) [1, 6]: +96% | Histamine (level in the synaptosomal fraction P2) ([1]; α-FMH 20 mg/kg + test compound 2 mg/kg, * p < 0.01 with respect to α-FMH alone): 23.2 ± 2.7 | LD50 at 1 h [2]: 100 mg/kg | Ki [3]: 5 nM | Depletion by α-FMH, change (in brackets) [4, 7]: +74% | Histamine (level in the synaptosomal fraction P2) [4, 8]: 26.4 ± 1.4 | Depletion by α-FMH [4, 9]: 25.2 ± 3.3

Ki [3]: 23 nM
SMILES: O=C(Nc1cccc(F)c1)N1CCC(c2c[nH]cn2)CC1 [Example 10]

SMILES: O=C(c1ccc(N2CCC(c3c[nH]cn3)CC2)cc1)C1CC1 [Example 4]
Ki [5]: 37 nM

SMILES: O=C(NC1CCCCC1)N1CCC(c2cn(C(=O)NC3CCCCC3)cn2)CC1 [Example 2]
Ki [5]: 26 nM

SMILES: NCCc1c[nH]cn1 [histamine, reference compound]
inhibition at 1 µM ([5]; read-out: inhibition of (3H)histamine release by exogenous histamine): ~60%

SMILES: c1ccc(OCCN2CCC(c3c[nH]cn3)CC2)cc1 [Example 40]
Ki [5]: 67 nM

Ki [3]: 30 nM
SMILES: S=C(NC12CC3CC(CC(C3)C1)C2)N1CCC(c2c[nH]cn2)CC1 [Example 7]

SMILES: O=C(NC1CCCCC1)N1CCC(c2c[nH]cn2)CC1 [Example 3]
Ki [5]: 41 nM | Depletion by α-FMH, change (in brackets) [4, 7]: +84% | Histamine (level in the synaptosomal fraction P2) [4, 8]: 24.9 ± 1.2 | Depletion by α-FMH [4, 9]: 26.7 ± 3.2

Ki [3]: 84 nM
SMILES: Cc1cccc(NC(=O)N2CCC(c3cn(C(=O)Nc4cccc(C)c4)cn3)CC2)c1 [Example 16]

SMILES: N[C@@](CF)(Cc1c[nH]cn1)C(=O)O [α-FMH, α-fluoromethylhistidine, reference compound]
Depletion by α-FMH [4, 10]: 14.5 ± 4.0 | Histamine (level in the synaptosomal fraction P2) [4, 10]: 37.1 ± 2.7

SMILES: CC(NC(=N)N1CCC(c2c[nH]cn2)CC1)C1CC1 (stereo not shown) [Example 57]
Ki [5, 11]: 12 nM

SMILES: S=C(NC1CCCCC1)N1CCCC(c2c[nH]cn2)C1 (stereo not shown) [Example 58]
Ki [5, 11]: 40 nM

SMILES: O=C(Nc1ccccc1)N1CCC(c2c[nH]cn2)CC1 [Example 9]
Ki [3]: 170 nM

Ki [3]: 10 nM
SMILES: CC(NC(=O)N1CCC(c2c[nH]cn2)CC1)c1ccccc1 (stereo not shown) [Example 56]

Ki [3]: 22 nM
SMILES: CC(NC(=O)N1CCC(c2cn(C(=O)NC(C)c3ccccc3)cn2)CC1)c1ccccc1 (stereo not shown) [Example 20]

Ki [3]: 500 nM
SMILES: Cc1[nH]cnc1C1CCN(CCCn2c(=O)[nH]c3ccccc32)CC1 [Example 39]

Ki [3]: 52 nM
SMILES: Cc1cccc(NC(=O)N2CCC(c3c[nH]cn3)CC2)c1 [Example 11]
